Data: ChEMBL document CHEMBL3259531, “Discovery of novel type II c-Met inhibitors based on BMS-777607” (Eur J Med Chem, 2014)
Calls of active or inactive are those of the source. The calls are words filed in the database; no cut-off is given here.

Assays:
[1] = Cytotoxicity against human MKN45 cells assessed as growth inhibition after 72 hrs; details: MKN-45, 72 h
BaF3 [2] = assay: Cytotoxicity against mouse BAF3 cells expressing TPR-Met assessed as growth inhibition at 10 uM after 72 hrs relative to control; format: functional; details: BaF3, 72 h, read-out: GI
BaF3 [3] = assay: Cytotoxicity against mouse BAF3 cells expressing TPR-Met assessed as growth inhibition after 72 hrs; details: BaF3, 72 h
[4] = target: T1, Hepatocyte growth factor receptor (Homo sapiens, UniProt P08581); assay: Inhibition of c-Met (unknown origin) using poly Glu:Tyr (4:1) as substrate at 10 uM after 60 mins by ELISA relative to control
[5] = target: T1, Hepatocyte growth factor receptor
[6] = target: T1, Hepatocyte growth factor receptor; remark: listed apart in the source
[7] = target: T1, Hepatocyte growth factor receptor; assay: Inhibition of c-Met (unknown origin) using poly Glu:Tyr (4:1) as substrate after 60 mins by ELISA
BaF3 [8] = assay: Cytotoxicity against mouse BAF3 cells expressing TPR-Met assessed as growth inhibition at 1 uM after 72 hrs; format: functional, cell-based
[9] = target: T1, Hepatocyte growth factor receptor; assay: Inhibition of c-Met (unknown origin)

Work on `CCOc1ccn(-c2ccc(F)cc2)c(=O)c1C(=O)Nc1ccc(Oc2ccnc3cc(OC)c(OC)cc23)c(F)c1` yielded an IC50 [1] of 39.7 nM, an inhibition of growth at 10 µM (BaF3 [2]) greater than 80% and an IC50 (BaF3 [3]) of 19.5 nM.
In the case of `COc1cc2nccc(Oc3ccc(NC(=O)c4cccn(-c5ccc(F)cc5)c4=O)cc3F)c2cc1OC`, the inhibition [4] is reported as 29.7%.
For `Nc1nccc(Oc2ccc(NC(=O)c3cccn(-c4ccc(F)cc4)c3=O)cc2F)n1`, the IC50 [5] was 39 nM.
With `CCOc1ccn(-c2ccc(F)cc2)c(=O)c1C(=O)Nc1ccc(Oc2ncnc3[nH]ccc23)c(F)c1` the inhibition of growth at 10 µM (BaF3 [2]) was greater than 80%.
For `Cc1ccc(NC(=O)C2CCCN(c3ccc(Oc4ccnc(N)c4Cl)c(F)c3)S2(=O)=O)cc1` (stereo not drawn), the IC50 [6] was “Not Active”.
With `Nc1nccc(Oc2ccc(N3CCCC(C(=O)Nc4ccc(F)cc4)S3(=O)=O)cc2F)c1Cl` (stereo not drawn) the inhibition [7] was “inactive”.
For `CCOc1ccn(-c2ccc(F)cc2)c(=O)c1C(=O)Nc1ccc(Oc2ccnc(N)c2Cl)c(F)c1` [BMS-777607], the IC50 [1] was 286 nM and the IC50 (BaF3 [3]) was 188 nM.
Molecule `COc1cc2nccc(Oc3ccc(NC(=O)c4c(OC)ccn(-c5ccc(F)cc5)c4=O)cc3F)c2cc1OC` has an IC50 [1] of 57.7 nM, an inhibition of growth at 10 µM (BaF3 [2]) greater than 80% and an IC50 (BaF3 [3]) of 36.3 nM.
In the case of `COc1cc2nccc(Oc3ccc(NC(=O)c4c(I)ccn(-c5ccc(F)cc5)c4=O)cc3F)c2cc1OC`, the “growth inhibition (GI)” value (BaF3 [8]) is reported as “Active” and the inhibition of growth at 10 µM (BaF3 [2]) is reported as greater than 80%.
Molecule `CCn1cnc(-c2cc3nccc(Oc4ccc(NC(=S)N5CCN(c6ccc(F)cc6)C5=O)cc4F)c3s2)c1` has an IC50 [9] of 27 nM.
With `Nc1nccc(Oc2ccc(N3CCCC(C(=O)Nc4ccccc4)S3(=O)=O)cc2F)c1Cl` (stereo not drawn) the inhibition [7] was “inactive”.
Work on `O=C(Nc1ccc(Oc2ncnc3[nH]ccc23)c(F)c1)c1cccn(-c2ccc(F)cc2)c1=O` yielded an inhibition of growth at 10 µM (BaF3 [2]) greater than 80%.
